US6355799B1, “Substituted benzene compounds, process for their preparation, and herbicidal and defoliant compositions containing them” (ISK Americas Incorporated, priority 1997, dated 2002)

Key:
Type in all cases: in vivo
[1] = test system: field corn (Zea mays L., var. Dekalb 535, CORN); experiment: Pre-emerge test, crop safety; settings: crop damage rating 0-100, 14 days after application
Method in brief: (§1)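 Visual ratings on a 0-100 scale (0 no damage, 100 all plants dead) were taken at 14 days after treatment. Rates of 15-1000 g ai/ha in acetone, 187 l/ha, were sprayed onto soil one day after planting (pre-emerge) or onto 2-3 leaf plants with 0.25% v/v surfactant (post-emerge).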

[2] = test system: upland rice (Oryza sp., var. Tebonnet, RICE); experiment: Pre-emerge test, crop safety; settings: crop damage rating 0-100, 14 days after application
Method in brief: as §1

[3] = test system: field corn (Zea mays L., var. Dekalb 535, CORN); experiment: Post-emerge test, crop safety; settings: post-emerge, 14 days after application, rating scale 0-100
Method in brief: (§2)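 Plants grown in 10 cm pots of sandy loam mix received acetone-dissolved compounds through a moving flat-fan nozzle. Doses ranged from 15 to 1000 g ai/ha. Pre-emerge pots were seeded one day earlier, post-emerge pots 8–21 days earlier. Fourteen days on, each pot was graded 0–100 for damage.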

[4] = test system: upland rice (Oryza sp., var. Tebonnet, RICE); experiment: Post-emerge test, crop safety; settings: post-emerge, 14 days after application, rating scale 0-100
Method in brief: as §2

[5] = test system: redroot pigweed (Amaranthus retroflexus, AMARE); experiment: Post-emerge test, greenhouse herbicide activity screening; settings: post-emerge, 14 days after application
Method in brief: (§3)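 Compounds in acetone were track-sprayed at 187 l/ha, 15–1000 g ai/ha, onto sandy loam pots. Pre-emerge seeds were sown one day before spraying, with surface watering afterwards. Post-emerge plants were at the 2–3 leaf stage and sprayed with 0.25% v/v non-ionic surfactant. Injury was rated 0–100 at 14 days.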

[6] = test system: lambsquarters (Chenopodium album, CHEAL); experiment: as above; settings: post-emerge, 14 days after application, rating scale 0-100
Method in brief: as §3

[7] = test system: green foxtail (Setaria viridis, SETVI); experiment: as above; settings: post-emerge, 14 days after application, rating scale 0-100
Method in brief: as §3

[8] = test system: johnsongrass (Sorghum halepense, SORHA); experiment: as above; settings: post-emerge, 14 days after application, rating scale 0-100
Method in brief: as §3

[9] = test system: velvetleaf (Abutilon theophrasti, ABUTH); experiment: as above; settings: post-emerge, 14 days after application, rating scale 0-100
Method in brief: as §3

[10] = test system: large crabgrass (Digitaria sanguinalis, DIGSA); experiment: as above; settings: post-emerge, 14 days after application, rating scale 0-100
Method in brief: as §3

[11] = test system: barnyardgrass (Echinochloa crus-galli, ECHCG); experiment: as above; settings: post-emerge, 14 days after application, rating scale 0-100
Method in brief: as §3

[12] = test system: ivyleaf morningglory (Ipomoea hederacea, IPOHE); experiment: as above; settings: post-emerge, 14 days after application, rating scale 0-100
Method in brief: as §3

[13] = test system: sicklepod (Cassia obtusifolia, CASOB); experiment: as above; settings: post-emerge, 14 days after application, rating scale 0-100
Method in brief: as §3

[14] = test system: redroot pigweed (Amaranthus retroflexus, AMARE); experiment: Pre-emerge test, greenhouse herbicide activity screening; settings: phytotoxicity rating 0-100, 14 days after application
Method in brief: as §2

[15] = test system: lambsquarters (Chenopodium album, CHEAL); experiment: as above; settings: phytotoxicity rating 0-100, 14 days after application
Method in brief: (§4)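 Rating: 0–100 visual injury, 14 DAA. Application: acetone, 187 l/ha, 15–1000 g ai/ha, flat-fan track sprayer with nozzle 40–45 cm above soil or canopy. Post-emerge runs used 0.25% v/v surfactant on 2–3 leaf plants.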

[16] = test system: green foxtail (Setaria viridis, SETVI); experiment: as above; settings: phytotoxicity rating 0-100, 14 days after application
Method in brief: as §4

[17] = test system: johnsongrass (Sorghum halepense, SORHA); experiment: as above; settings: phytotoxicity rating 0-100, 14 days after application
Method in brief: as §4

[18] = test system: common ragweed (Ambrosia artemisizfolia L., AMBEL); experiment: as above; settings: phytotoxicity rating 0-100, 14 days after application
Method in brief: as §4

[19] = test system: velvetleaf (Abutilon theophrasti, ABUTH); experiment: as above; settings: phytotoxicity rating 0-100, 14 days after application
Method in brief: as §4

[20] = test system: large crabgrass (Digitaria sanguinalis, DIGSA); experiment: as above; settings: phytotoxicity rating 0-100, 14 days after application
Method in brief: as §4

[21] = test system: barnyardgrass (Echinochloa crus-galli, ECHCG); experiment: as above; settings: phytotoxicity rating 0-100, 14 days after application
Method in brief: as §4

[22] = test system: ivyleaf morningglory (Ipomoea hederacea, IPOHE); experiment: as above; settings: phytotoxicity rating 0-100, 14 days after application
Method in brief: as §4

[23] = test system: sicklepod (Cassia obtusifolia, CASOB); experiment: as above; settings: phytotoxicity rating 0-100, 14 days after application
Method in brief: as §4

[24] = 63 g ai/ha, rating scale 0-100 (0 no damage, 100 complete death)
[25] = 250 g ai/ha, rating scale 0-100

## CC(C)Oc1c(Cl)cc(F)c(-n2c(=O)cc(C(F)(F)F)n(C)c2=O)c1NC(=O)c1ccc2ccccc2c1 [2-197]
[1]; 63 g ai/ha
  Pre-emerge Herbicidal Activity CORN: 0
[1]; 250 g ai/ha
  Pre-emerge Herbicidal Activity CORN: 0
[2]; 63 g ai/ha
  Pre-emerge Herbicidal Activity RICE: 30
[2]; 250 g ai/ha
  Pre-emerge Herbicidal Activity RICE: 80
[3]; 63 g ai/ha
  phytotoxicity rating CORN (crop damage): 10
[3]; 250 g ai/ha
  phytotoxicity rating CORN (crop damage): 10
[4]; 63 g ai/ha
  phytotoxicity rating RICE (crop damage): 20
[4]; 250 g ai/ha
  phytotoxicity rating RICE (crop damage): 30
[5]; [24]
  phytotoxicity rating AMARE: 100
[5]; [25]
  phytotoxicity rating AMARE: 100
[6]; 63 g ai/ha
  phytotoxicity rating CHEAL: 100
[6]; 250 g ai/ha
  phytotoxicity rating CHEAL: 100
[7]; 63 g ai/ha
  phytotoxicity rating SETVI: 10
[7]; 250 g ai/ha
  phytotoxicity rating SETVI: 20
[8]; 63 g ai/ha
  phytotoxicity rating SORHA: 0
[8]; 250 g ai/ha
  phytotoxicity rating SORHA: 50
[9]; 63 g ai/ha
  phytotoxicity rating ABUTH: 100
[9]; 250 g ai/ha
  phytotoxicity rating ABUTH: 100
[10]; 63 g ai/ha
  phytotoxicity rating DIGSA: 10
[10]; 250 g ai/ha
  phytotoxicity rating DIGSA: 10
[11]; 63 g ai/ha
  phytotoxicity rating ECHCG: 0
[11]; 250 g ai/ha
  phytotoxicity rating ECHCG: 20
[12]; 63 g ai/ha
  phytotoxicity rating IPOHE: 100
[12]; 250 g ai/ha
  phytotoxicity rating IPOHE: 90
[13]; 63 g ai/ha
  phytotoxicity rating CASOB: 80
[13]; 250 g ai/ha
  phytotoxicity rating CASOB: 80
[14]; 63 g ai/ha
  Pre-emerge Herbicidal Activity AMARE: 100
[14]; 250 g ai/ha
  Pre-emerge Herbicidal Activity AMARE: 100
[15]; 63 g ai/ha
  Pre-emerge Herbicidal Activity CHEAL: 100
[15]; 250 g ai/ha
  Pre-emerge Herbicidal Activity CHEAL: 100
[16]; 63 g ai/ha
  Pre-emerge Herbicidal Activity SETVI: 50
[16]; 250 g ai/ha
  Pre-emerge Herbicidal Activity SETVI: 100
[17]; 63 g ai/ha
  Pre-emerge Herbicidal Activity SORHA: 0
[17]; 250 g ai/ha
  Pre-emerge Herbicidal Activity SORHA: 20
[18]; 63 g ai/ha
  Pre-emerge Herbicidal Activity AMBEL: 100
[18]; 250 g ai/ha
  Pre-emerge Herbicidal Activity AMBEL: 100
[19]; 63 g ai/ha
  Pre-emerge Herbicidal Activity ABUTH: 90
[19]; 250 g ai/ha
  Pre-emerge Herbicidal Activity ABUTH: 100
[20]; 63 g ai/ha
  Pre-emerge Herbicidal Activity DIGSA: 80
[20]; 250 g ai/ha
  Pre-emerge Herbicidal Activity DIGSA: 100
[21]; 63 g ai/ha
  Pre-emerge Herbicidal Activity ECHCG: 0
[21]; 250 g ai/ha
  Pre-emerge Herbicidal Activity ECHCG: 50
[22]; 63 g ai/ha
  Pre-emerge Herbicidal Activity IPOHE: 30
[22]; 250 g ai/ha
  Pre-emerge Herbicidal Activity IPOHE: 50
[23]; 63 g ai/ha
  Pre-emerge Herbicidal Activity CASOB: 0
[23]; 250 g ai/ha
  Pre-emerge Herbicidal Activity CASOB: 50

## Cc1ccc(-n2c(=O)cc(C(F)(F)F)n(C)c2=O)c(NC(=O)c2ccc3ccccc3c2)c1 [2-201]
[1]; 63 g ai/ha
  Pre-emerge Herbicidal Activity CORN: 0
[1]; 250 g ai/ha
  Pre-emerge Herbicidal Activity CORN: 0
[2]; 63 g ai/ha
  Pre-emerge Herbicidal Activity RICE: 0
[2]; 250 g ai/ha
  Pre-emerge Herbicidal Activity RICE: 30
[3]; 63 g ai/ha
  phytotoxicity rating CORN (crop damage): 30
[3]; 250 g ai/ha
  phytotoxicity rating CORN (crop damage): 35
[4]; 63 g ai/ha
  phytotoxicity rating RICE (crop damage): 60
[4]; 250 g ai/ha
  phytotoxicity rating RICE (crop damage): 65
[5]; [24]
  phytotoxicity rating AMARE: 99
[5]; [25]
  phytotoxicity rating AMARE: 100
[6]; 63 g ai/ha
  phytotoxicity rating CHEAL: 95
[6]; 250 g ai/ha
  phytotoxicity rating CHEAL: 98
[7]; 63 g ai/ha
  phytotoxicity rating SETVI: 20
[7]; 250 g ai/ha
  phytotoxicity rating SETVI: 30
[8]; 63 g ai/ha
  phytotoxicity rating SORHA: 0
[8]; 250 g ai/ha
  phytotoxicity rating SORHA: 0
[9]; 63 g ai/ha
  phytotoxicity rating ABUTH: 95
[9]; 250 g ai/ha
  phytotoxicity rating ABUTH: 99
[10]; 63 g ai/ha
  phytotoxicity rating DIGSA: 35
[10]; 250 g ai/ha
  phytotoxicity rating DIGSA: 45
[11]; 63 g ai/ha
  phytotoxicity rating ECHCG: 50
[11]; 250 g ai/ha
  phytotoxicity rating ECHCG: 60
[12]; 63 g ai/ha
  phytotoxicity rating IPOHE: 95
[12]; 250 g ai/ha
  phytotoxicity rating IPOHE: 95
[13]; 63 g ai/ha
  phytotoxicity rating CASOB: 60
[13]; 250 g ai/ha
  phytotoxicity rating CASOB: 85
[14]; 63 g ai/ha
  Pre-emerge Herbicidal Activity AMARE: 95
[14]; 250 g ai/ha
  Pre-emerge Herbicidal Activity AMARE: 95
[15]; 63 g ai/ha
  Pre-emerge Herbicidal Activity CHEAL: 98
[15]; 250 g ai/ha
  Pre-emerge Herbicidal Activity CHEAL: 100
[16]; 63 g ai/ha
  Pre-emerge Herbicidal Activity SETVI: 0
[16]; 250 g ai/ha
  Pre-emerge Herbicidal Activity SETVI: 75
[17]; 63 g ai/ha
  Pre-emerge Herbicidal Activity SORHA: 0
[17]; 250 g ai/ha
  Pre-emerge Herbicidal Activity SORHA: 30
[18]; 63 g ai/ha
  Pre-emerge Herbicidal Activity AMBEL: 30
[18]; 250 g ai/ha
  Pre-emerge Herbicidal Activity AMBEL: 80
[19]; 63 g ai/ha
  Pre-emerge Herbicidal Activity ABUTH: 98
[19]; 250 g ai/ha
  Pre-emerge Herbicidal Activity ABUTH: 100
[20]; 63 g ai/ha
  Pre-emerge Herbicidal Activity DIGSA: 45
[20]; 250 g ai/ha
  Pre-emerge Herbicidal Activity DIGSA: 95
[21]; 63 g ai/ha
  Pre-emerge Herbicidal Activity ECHCG: 15
[21]; 250 g ai/ha
  Pre-emerge Herbicidal Activity ECHCG: 75
[22]; 63 g ai/ha
  Pre-emerge Herbicidal Activity IPOHE: 55
[22]; 250 g ai/ha
  Pre-emerge Herbicidal Activity IPOHE: 80
[23]; 63 g ai/ha
  Pre-emerge Herbicidal Activity CASOB: 0
[23]; 250 g ai/ha
  Pre-emerge Herbicidal Activity CASOB: 0
